Measured values reported in EP0701561B1, “DESOXYAZAPHOSPHOLIPID DERIVATIVES HAVING INHIBITING ACTIVITY ON PHOSPHOLIPASE A2” (LABORATORIOS MENARINI S.A., priority 1993, dated 1994).

The compounds below were run on carrageenin plantar oedema (assay: Antiinflammatory activity, inhibition of the carrageenin plantar oedema in the rat). Details: intravenously, dose 2.5 mg/Kg, paw volume 3 hours after carrageenin.
Type: in vivo, male Sprague-Dawley rats
Description: The antiinflammatory action of the compounds of the present invention is determined by a standard test based on the procedure by Winter C.A. et al. (Proc. Soc. Exp. Biol. Med., 111, 544 (1962)). In this test, male Sprague-Dawley rats of 90-110 g are used, which are randomized in groups of 5 animals. The compound under test is administered intravenously in the tail lateral vein. The compound is suspended in Tween 20 (2-3% final concentration) and physiological serum is added to obtain a solution of the desired concentration of the compound, the administered volume being 2.5 ml/kg. Immediately after the injection of the compound, a subplantar injection of 0.1 ml of 1% carrageenin in physiological serum is performed in the right paw of the rat. In each test, a control group is systematically used, which is administered with the vehicle only. The paw inflammation is evaluated by measuring its volume with a water plethysmograph 1, 3 and 6 hours after inducing the inflammation. The determination of the inhibition percentage of the inflammation is calculated by the following formula: % Inhibition = (1 - A/B) x 100 [formula] wherein A is the average of the swelling volume in the group of treated animals and B is the average of the swelling volume in the control group.
For comparison purposes, the inhibition values of indomethacin and ketoprofen are also included as reference. The inhibition value found for Compound A, a structural analogous of the compounds described in the present patent, is also shown.

Q: For `CCCCCCCCCCS(=O)(=O)NC(CCCCCC)COP(=O)(O)OCCOCc1ccccc1` (stereo not shown) [Compound 26, 2-Decanesulfonylaminooctanol-1-phospho-2-benzyloxyethanol], which “% Inhibition (3 hours)” value is on record?
A: 26%

Same assay, conditions: intravenously, dose 5 mg/Kg, paw volume 3 hours after carrageenin

Q: `CCCCCCCCCCS(=O)(=O)NC(CCCCCC)COP(=O)(O)OCCOCc1ccccc1` (stereo not shown) [Compound 26, 2-Decanesulfonylaminooctanol-1-phospho-2-benzyloxyethanol] was tested. Which “% Inhibition (3 hours)” value did it give?
A: 37%

Q: For `CCCCCCCCCCS(=O)(=O)N[C@H](CCCCCC)COP(=O)(O)OCCOCc1ccccc1` [Compound 27, (R)-2-Decanesulfonylaminooctanol-1-phospho-2-benzyloxyethanol], which “% Inhibition (3 hours)” value is on record?
A: 36%

Q: `CCCCCCCCCCS(=O)(=O)N[C@@H](CCCCCC)COP(=O)(O)OCCOCc1ccccc1` [Compound 28, (S)-2-Decanesulfonylaminooctanol-1-phospho-2-benzyloxyethanol] was tested. Which “% Inhibition (3 hours)” value did it give?
A: 19%

Q: With `CCCCCCC(COP(=O)(O)OCCOCc1ccccc1)NS(=O)(=O)CCCc1ccccc1` (stereo not shown) [Compound 32, 2-(3-Phenylpropanesulfonylamino)octanol-1-phospho-2-benzyloxyethanol] as the compound, how does the “% Inhibition (3 hours)” value read?
A: 35%

Q: How did the “% Inhibition (3 hours)” value turn out when `CCCCCCCCCCS(=O)(=O)NC(CCCCCC)COP(=O)(O)CCCCc1ccccc1` (stereo not shown) [Compound 38, 2-Decanesulfonaminooctyl (4-phenylbutyl)phosphonate] was run?
A: 23%

Q: Which “% Inhibition (3 hours)” value does the source give for `CCCCCCCCCCCC(=O)NC(CCCCCC)COP(=O)(O)CCCC` (stereo not shown) [Compound 39, 2-Dodecanoylaminooctyl butylphosphonate] here?
A: 17%

Q: For `COc1ccc2c(c1)c(CC(=O)O)c(C)n2C(=O)c1ccc(Cl)cc1` [Indomethacin, indomethacin, reference compound], which “% Inhibition (3 hours)” value is on record?
A: 37%

Q: For `CC(C(=O)O)c1cccc(C(=O)c2ccccc2)c1` (stereo not shown) [Ketoprofen, ketoprofen, reference compound], which “% Inhibition (3 hours)” value is on record?
A: 37%

Q: With “(R)-2-Decanesulfonylaminohexanol-1-phospho-2-benzyloxyethanol [Compound 29]” as the compound, how does the “% Inhibition (3 hours)” value read?
A: 27%

Q: With “(S)-2-Decanesulfonylaminohexanol-1-phospho-2-benzyloxyethanol [Compound 30]” as the compound, how does the “% Inhibition (3 hours)” value read?
A: 12%

Same assay, conditions: intravenously, dose 10 mg/Kg, paw volume 3 hours after carrageenin

Q: How did the “% Inhibition (3 hours)” value turn out when `CCCCCCCCCCS(=O)(=O)NC(CCCCCC)COP(=O)(O)OCCOCc1ccccc1` (stereo not shown) [Compound 26, 2-Decanesulfonylaminooctanol-1-phospho-2-benzyloxyethanol] was run?
A: 41%

Q: Which “% Inhibition (3 hours)” value does the source give for `CCCCCCCCCCCC(=O)NC(CCCCCC)COP(=O)(O)OCCOCc1ccccc1` (stereo not shown) [Compound A, 2-dodecanoylaminooctanol-1-phospho-2-benzyloxyethanol, reference compound] here?
A: 14%
